This is an account of results in PubChem BioAssay (NCI).

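The compound was tested at five concentrations on cells cultured in 96-well plates, with a 48-hour exposure period. Abbreviation: GI50, concentration required for 50% inhibition of growth. TGI: total growth inhibition.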

For the first assay, the system named is NCI-H23 lung. Briefly: DTP human tumour cell line panel, 48 h.
Take `Nc1ncnc2c1ncn2C1C=C(CO)C(O)C1O` (stereo not drawn): the TGI was determined as 35.4 µM.

A further assay concerns NCI-H460 lung. The assay can be described thus: DTP human tumour cell line panel, 48 h.
Take `CN(c1ccc(NC(=O)Nc2c(Cl)cccc2Cl)cc1)c1ccnc(Nc2cccc(CS(C)(=O)=O)c2)n1`: the GI50 is 0.505 µM and the TGI stood at 11.6 µM.

As for `CCCCCCCCCCCC(=O)OCCOCCOCCOCCOCCOC(=O)CCCCCCCCCCC`, the TGI is more than 100 µM.

Molecule `COc1ccc(C=O)cc1O[Si](C)(C)C(C)(C)C` registered a TGI of more than 100 µM.

With `O=C1COc2cc(NC(=S)Nc3ccccc3)ccc2N1`, the concentration for total growth inhibition (TGI) was more than 100 µM.

Take `CCCCCCCCn1ccc2cc(NC(=O)Cn3cc(CN4CCCCCC4)nn3)ccc21`: the GI50 was 1.85 µM and the TGI is 3.45 µM.

`COCCOC(=O)C1=C(O)c2ccccc2S(=O)(=O)N1C` displayed a TGI of more than 100 µM.

For the molecule `CNC(=O)OCc1nc(SSC(C)(C)C)n(C)c1COC(=O)NC`, the TGI came to 26.6 µM. That is a double-digit micromolar value.

As to `CC(C)C(O)(C(C)C)C(C)C`, the TGI was more than 100 µM.

`O=C(Nc1ccc(Cl)cc1)C1C(=O)C(=O)N(c2ccc(Cl)cc2)C1=O` (stereo not drawn) yielded a TGI of more than 100 µM.

`CCC[CH2][Sn]([CH2]CCC)([O]C(=O)CN)[O]C(=O)CN`: the GI50 was more than 100 µM and the TGI is more than 100 µM.

As to `CC1(C)N=C(N)N=C(N)N1c1ccc(CCC(=O)Nc2ccc(S(=O)(=O)F)cc2)c(Cl)c1`, the GI50 is 0.0716 µM and the TGI is more than 100 µM.

For the molecule `O=C(Nc1ccc(C(F)(F)F)cc1[N+](=O)[O-])C(=O)C1NC(=S)NC1=O` (stereo not drawn), the TGI was more than 100 µM.

Regarding `COC(=O)c1ccc2[nH]c(O)c(C(=Nc3ccc(N(C)C(=O)CN4CCN(C)CC4)cc3)c3ccc4c(c3)OCO4)c2c1`, the GI50 was 0.902 µM and the TGI came to 2.65 µM.

As to `N[C@H](C(=O)O)[C@@H]1CC(Cl)=NO1`, the GI50 was 3.22 µM and the TGI was more than 1000 µM.

`Oc1ccc2ccccc2c1N=Nc1cccc2ccccc12` showed a TGI of more than 100 µM.

On to `COc1ccc2c(c1)NC1=C(C(=O)OC1)C2c1cc(OC)c(OC)c(OC)c1` (stereo not drawn), for which the GI50 is less than 0.01 µM and the TGI was more than 100 µM.

As for `NCCCNCCS`, the TGI is more than 100 µM.

Molecule `COC(=O)C(=O)CC(=O)CCn1[nH]c(=O)c(Cl)c(Cl)c1=O` displayed a TGI of more than 100 µM.

Take `Cn1c(Cl)c(/C=C2/C(=O)Nc3ccccc32)c2ccccc21`: the GI50 is 0.727 µM and the TGI was more than 32.2 µM.

Take `O=C1C(=O)c2ccccc2C(O)=C1C(C1=C(O)c2ccccc2C(=O)C1=O)c1ccc(Cl)cc1`: the TGI is 28.9 µM.

On to `Nc1ncnc2c1ncn2C1C=C(CO)C(O)C1O` (stereo not drawn), for which the TGI worked out at 34.8 µM.

The subject of a further assay is RXF 393 renal. The assay can be described thus: DTP human tumour cell line panel, 48 h.
`CN(c1ccc(NC(=O)Nc2c(Cl)cccc2Cl)cc1)c1ccnc(Nc2cccc(CS(C)(=O)=O)c2)n1`: the GI50 is 2.23 µM and the TGI was found to be 8.08 µM.

On to `CCCCCCCCCCCC(=O)OCCOCCOCCOCCOCCOC(=O)CCCCCCCCCCC`, for which the TGI is more than 100 µM.

In the case of `COc1ccc(C=O)cc1O[Si](C)(C)C(C)(C)C`, the concentration for total growth inhibition (TGI) is more than 100 µM.

Take `O=C1COc2cc(NC(=S)Nc3ccccc3)ccc2N1`: the TGI is more than 100 µM.

For the molecule `CCCCCCCCn1ccc2cc(NC(=O)Cn3cc(CN4CCCCCC4)nn3)ccc21`, the GI50 was 1.66 µM and the TGI came to 3.24 µM.

Turning to `COCCOC(=O)C1=C(O)c2ccccc2S(=O)(=O)N1C`, the TGI is more than 100 µM.

`CNC(=O)OCc1nc(SSC(C)(C)C)n(C)c1COC(=O)NC` yielded a TGI of 2.84 µM.

The molecule `CC(C)C(O)(C(C)C)C(C)C` came in with a TGI of more than 100 µM.

Molecule `O=C(Nc1ccc(Cl)cc1)C1C(=O)C(=O)N(c2ccc(Cl)cc2)C1=O` (stereo not drawn) registered a TGI of more than 100 µM.

Turning to `CCC[CH2][Sn]([CH2]CCC)([O]C(=O)CN)[O]C(=O)CN`, the GI50 is 16.2 µM and the total growth inhibition concentration (TGI) was found to be 44.3 µM.

Turning to `CC1(C)N=C(N)N=C(N)N1c1ccc(CCC(=O)Nc2ccc(S(=O)(=O)F)cc2)c(Cl)c1`, the GI50 is more than 45.4 µM and the TGI was more than 100 µM.

For the molecule `O=C(Nc1ccc(C(F)(F)F)cc1[N+](=O)[O-])C(=O)C1NC(=S)NC1=O` (stereo not drawn), the TGI was more than 100 µM.

`COC(=O)c1ccc2[nH]c(O)c(C(=Nc3ccc(N(C)C(=O)CN4CCN(C)CC4)cc3)c3ccc4c(c3)OCO4)c2c1`: the concentration for 50% growth inhibition (GI50) is 0.36 µM and the TGI came out at 1.52 µM.

On to `N[C@H](C(=O)O)[C@@H]1CC(Cl)=NO1`, for which the total growth inhibition concentration (TGI) is 718 µM.

`Oc1ccc2ccccc2c1N=Nc1cccc2ccccc12` displayed a TGI of more than 100 µM.

Turning to `COc1ccc2c(c1)NC1=C(C(=O)OC1)C2c1cc(OC)c(OC)c(OC)c1` (stereo not drawn), the GI50 is less than 0.01 µM and the TGI is 61.8 µM.

On to `NCCCNCCS`, for which the TGI was more than 100 µM.

In the case of `COC(=O)C(=O)CC(=O)CCn1[nH]c(=O)c(Cl)c(Cl)c1=O`, the total growth inhibition concentration (TGI) is more than 100 µM.

As to `Cn1c(Cl)c(/C=C2/C(=O)Nc3ccccc32)c2ccccc21`, the concentration for 50% growth inhibition (GI50) is 0.392 µM and the TGI was more than 19.6 µM.

As for `O=C1C(=O)c2ccccc2C(O)=C1C(C1=C(O)c2ccccc2C(=O)C1=O)c1ccc(Cl)cc1`, the TGI came to 18.4 µM. This lies in the double-digit micromolar range.

`Nc1ncnc2c1ncn2C1C=C(CO)C(O)C1O` (stereo not drawn) had a concentration for total growth inhibition (TGI) of 42.8 µM.

Another assay has as its system SF-268 CNS. Briefly: DTP human tumour cell line panel, 48 h.
On to `CN(c1ccc(NC(=O)Nc2c(Cl)cccc2Cl)cc1)c1ccnc(Nc2cccc(CS(C)(=O)=O)c2)n1`, for which the GI50 is 2.19 µM and the total growth inhibition concentration (TGI) came to 10.7 µM.

Consider `CCCCCCCCCCCC(=O)OCCOCCOCCOCCOCCOC(=O)CCCCCCCCCCC`, for which the TGI is more than 100 µM.

Turning to `COc1ccc(C=O)cc1O[Si](C)(C)C(C)(C)C`, the TGI is more than 100 µM.

`O=C1COc2cc(NC(=S)Nc3ccccc3)ccc2N1` had a TGI of more than 100 µM.

For `CCCCCCCCn1ccc2cc(NC(=O)Cn3cc(CN4CCCCCC4)nn3)ccc21`, the GI50 was 1.8 µM and the total growth inhibition concentration (TGI) was found to be 3.37 µM.

The molecule `COCCOC(=O)C1=C(O)c2ccccc2S(=O)(=O)N1C` displayed a TGI of more than 100 µM.

The molecule `CNC(=O)OCc1nc(SSC(C)(C)C)n(C)c1COC(=O)NC` returned a TGI of 16.7 µM.

Molecule `CC(C)C(O)(C(C)C)C(C)C` displayed a TGI of more than 100 µM.

For `O=C(Nc1ccc(Cl)cc1)C1C(=O)C(=O)N(c2ccc(Cl)cc2)C1=O` (stereo not drawn), the TGI is more than 100 µM.

As for `CCC[CH2][Sn]([CH2]CCC)([O]C(=O)CN)[O]C(=O)CN`, the GI50 was 20.6 µM and the TGI was 71.6 µM.

For the molecule `CC1(C)N=C(N)N=C(N)N1c1ccc(CCC(=O)Nc2ccc(S(=O)(=O)F)cc2)c(Cl)c1`, the GI50 is 0.507 µM and the TGI is more than 100 µM.
